{"source": "ChEMBL document CHEMBL1159286", "about": "“New secosteroids from an undescribed gorgonian of the genus Muricella” (J Nat Prod, 1995)", "key": {"Artemia": {"test_system": "Artemia", "assay": "Toxicity against brine shrimp larvae", "format": "organism-based", "conditions": "in vivo"}, "Human alphaherpesvirus 1": {"test_system": "Human alphaherpesvirus 1", "assay": "Antiviral activity against HSV1", "format": "functional, organism-based"}, "Human alphaherpesvirus 2": {"test_system": "Human alphaherpesvirus 2", "assay": "Antiviral activity against HSV2", "format": "functional, organism-based"}, "Enterovirus C": {"test_system": "Enterovirus C", "assay": "Antiviral activity against Poliovirus", "format": "functional, organism-based"}}, "data": [{"compound": "Cc1ccc(O)cc1CC[C@@H]1C(=O)CC[C@]2(C)[C@@H]([C@H](C)/C=C/CC(C)C)CC[C@@H]12", "note": "[CALICOFEROL A]", "values": [{"measurement": "LD50", "setting": "Artemia", "value": 1.8, "unit": "ppm"}]}, {"compound": "Cc1ccc(O)cc1CC[C@@H]1[C@H](O)CC[C@]2(C)[C@@H]([C@H](C)CCCC(C)C)[C@@H](O)C[C@@H]12", "note": "[CALICOFEROL B]", "values": [{"measurement": "LD50", "setting": "Artemia", "value": 2.3, "unit": "ppm"}]}, {"compound": "Cc1ccc(O)cc1CC[C@@H]1C(=O)CC[C@]2(C)[C@@H]([C@H](C)CCCC(C)C)CC[C@@H]12", "note": "[CALICOFEROL E]", "values": [{"measurement": "LD50", "setting": "Artemia", "value": "> 100", "unit": "ppm"}]}, {"compound": "C=C(CC[C@@H](C)[C@H]1CC[C@H]2[C@H](CCc3cc(O)ccc3C)[C@H](O)CC[C@]12C)C(C)C", "note": "[CALICOFEROL C]", "values": [{"measurement": "LD50", "setting": "Artemia", "value": "> 100", "unit": "ppm"}]}, {"compound": "Cc1ccc(O)cc1CC[C@@H]1C(=O)CC[C@]2(C)[C@@H]([C@H](C)/C=C/C(C)C(C)C)CC[C@@H]12", "note": "(some centres undefined) [CALICOFEROL D]", "values": [{"measurement": "LD50", "setting": "Artemia", "value": 37, "unit": "ppm"}, {"measurement": "EC50", "setting": "Human alphaherpesvirus 1", "value": 1.2, "unit": "µg/mL"}, {"measurement": "EC50", "setting": "Human alphaherpesvirus 2", "value": 1.2, "unit": "µg/mL"}, {"measurement": "EC50", "setting": "Enterovirus C", "value": 0.4, "unit": "µg/mL"}]}, {"compound": "Cc1ccc(O)cc1CC[C@@H]1[C@H](O)CC[C@]2(C)[C@@H]([C@H](C)CCCC(C)C)CC[C@@H]12", "note": "[ASTROGORGIADIOL]", "values": [{"measurement": "LD50", "setting": "Artemia", "value": "> 100", "unit": "ppm"}]}]}
